Experimental data from paper PMC9604255, “Discovery of Simple Diacylhydrazine-Functionalized Cinnamic Acid Derivatives as Potential Microtubule Stabilizers” (International Journal of Molecular Sciences, 2022).
Like-named read-outs stand apart in the source and are kept apart here.

Assays:
A549 cancer cells = assay: MTT antiproliferative assay, A549; assay type: cell-based, human; conditions: MTT assay after 48 h
From the text: (§1) An A549 (human non-small cell lung cancer cell line) cell line was purchased from the Shanghai Cell Bank of the Chinese Academy of Sciences; PC-3 (human prostate cancer cell line) cell line was donated by the Key Laboratory of Natural Product Chemistry of the Chinese Academy of Sciences of Guizhou Province; HepG2 (human liver cancer cell line) and NRK 52E (normal rat kidney cell line) cell line was donated by Guizhou Medical University; all cell lines were kept by the laboratory.
(§2) The antiproliferative activity of target compounds against A549, PC-3, HepG2, and NRK-52E were determined by MTT assay, as described in previous articles. The assay was recorded at 490 nm by an Infinite® M200 PRO multimode microplate (Tecan, Männedorf, Switzerland).

PC-3 cancer cells = assay: MTT antiproliferative assay, PC-3; assay type: cell-based, human; conditions: MTT assay after 48 h
From the text: as §1, §2

HepG2 cancer cells = assay: MTT antiproliferative assay, HepG2; assay type: cell-based, human; conditions: read-out: IC50 HepG2
From the text: as §1, §2

NRK-52E cells = assay: MTT cytotoxicity assay, normal NRK-52E cells; assay type: cell-based; conditions: MTT assay after 48 h, normal rat kidney cell line
From the text: as §1, §2

A549 cells = assay: Scratch test (cell migration); assay type: cell-based, human
Procedure: According to the previous methods, A549 cells of the logarithmic growth stage were cultured in 6-well plates with two lines on the back, with each well containing a density of 1 × 10^6 cells/mL. After the cells adhered to the wall, three uniform thin lines were drawn in each well by a sterile pipette tip. Afterward, the medium containing 1% fetal bovine serum (FBS) and various concentrations of compounds were added in wells. After the different time of incubation, the cells were performed by an inverted fluorescence microscope. Then the scratch healing rate was calculated: Migration distance (n h) = edge distance (0 h) − edge distance (12 h or 24 h).

[1] = test system: cellular microtubule network of HepG2 cells; assay: Immunofluorescence staining of tubulin; assay type: cell-based, human; conditions: 3 and 6 μM, 24 h
Procedure: According to the previous methods, compound solutions of various concentrations were added to a 6-well plate in which HepG2 cells had been seeded for 12 h. After incubation for 24 h and washed with phosphate-buffered saline (PBS, 10 mM, pH 7.3), each well was treated with 4% formaldehyde solution for 15 min and washed with 0.1% Triton X-100 of phosphate-buffered saline (PBS, 10 mM, pH 7.3). After that, the fixed cells were incubated with diluted tubulin-tracker red for 40 min in a dark environment, followed by washing three times by 0.1% Triton X-100 of phosphate-buffered saline (PBS, 10 mM, pH 7.3). Finally, each well was added DAPI (2 μg/mL). Finally, the results were observed using a Nikon ECLIPSE Ti-S fluorescent microscope (Nikon Co, Tokyo, Japan).

tubulin [2] = target: T1, tubulin (Sus scrofa, UniProt P02554); assay: Tubulin polymerization assay in vitro; assay type: biochemical; conditions: 10 μM and 20 μM; 4 mg/mL tubulin, 37 °C, 340 nm
T1 construct: purchased Cytoskeleton, Inc. BK004P
Procedure: The tubulin polymerization assay in vitro was determined by HTS-Tubulin Polymerization Assay Kit (#BK004P, Cytoskeleton, Inc., Denver, CO, USA) as described in previous articles. The plate was pre-warmed at 37 °C, and the reaction assay contained 100 μL 4 mg/mL tubulin in G-PEM buffer. Then, 10 μL (10×) compounds solution or 100 μM paclitaxel solution as a control. Finally, the polymerization was carried out at 37 °C and recorded at 340 nm each 10 s for 70 min using Cytation™ 5 multi-mode readers.

tubulin [3] = assay: Tubulin polymerization via TEM; assay type: biochemical; conditions: 20 μM + 4 mg/mL tubulin
Procedure: Briefly, according to the protocol of tubulin polymerization assay, the 100 μL centrifuge tubes were pre-warmed at 37 °C, and the reaction assay contained 20 μL 4 mg/mL tubulin in G-PEM buffer. Then, 2 μL (10×) compounds solution was added. Finally, the assay was carried out at 37 °C for 30 min. The formed microtubules were transferred to Formvar-caron-coated copper grids, negatively stained with 1% phosphotungstic acid, and visualized under a transmission electron microscope.

HepG2 cells [4] = assay: Cell cycle analysis by flow cytometry; assay type: cell-based, human; conditions: HepG2, 24 μM, 24 h (0 μM: 17.68%)
Procedure: The cells in the 6-well plates were carefully collected 24 h after dosing. After the cells were washed with pre-cooled PBS, the pre-cooled 70% ethanol solution was added for fixation (4 °C overnight). After that, the cells were washed with PBS, and incubated with 1 mg/mL RNase A for 30 min at 37 °C). Then, […] PI staining solution was added and incubated in the dark for 30 min at 4 °C. Finally, the cell arrest was analyzed by the FACSCalibur™ flow cytometer (Becton Dickinson Immunocytometry Systems, San Jose, CA, USA) as previously described.

HepG2 cells [5] = assay: Hoechst apoptosis experiment; assay type: cell-based, human; conditions: HepG2, 6 μM, 24 h
Procedure: In this assay, HepG2 cells were seeded in 6-well plates, after 24 h of incubation, different compounds were added at various concentrations, and cells were incubated again for 24 h. Afterward, the medium was removed and cells were washed twice with phosphate-buffered saline (PBS, 10 mM, pH 7.3), and fixed with 4% paraformaldehyde for 15 min at room temperature, then stained with […] Hoechst 33258 in PBS for 20 min at 37 °C in the dark. After incubation, the cells were incubated with an anti-fluorescent attenuator and imaged with an inverted fluorescence microscope.

[6] = test system: A549, PC-3 and HepG2 cancer cell lines; assay: MTT antiproliferative assay, three cancer lines together; assay type: cell-based; conditions: Homo sapiens; range over A549, PC-3 and HepG2; read-out: IC50 values against three cancer lines
From the text: as §1, with “laboratory. Cells were maintained in RPMI 1640 or DMEM complete medium.” for “laboratory.”
as §2, with “Switzerland). Curcumin, gefitinib, and colchicine were used as positive controls.” for “Switzerland).”

[7] = Homo sapiens, HepG2, 48 h, MTT assay after 48 h
[8] = A549, 6 μM, 12 h (control 12.5%)
[9] = A549, 6 μM, 24 h (control 24.4%)

T1 sequence (P02554 whole entry): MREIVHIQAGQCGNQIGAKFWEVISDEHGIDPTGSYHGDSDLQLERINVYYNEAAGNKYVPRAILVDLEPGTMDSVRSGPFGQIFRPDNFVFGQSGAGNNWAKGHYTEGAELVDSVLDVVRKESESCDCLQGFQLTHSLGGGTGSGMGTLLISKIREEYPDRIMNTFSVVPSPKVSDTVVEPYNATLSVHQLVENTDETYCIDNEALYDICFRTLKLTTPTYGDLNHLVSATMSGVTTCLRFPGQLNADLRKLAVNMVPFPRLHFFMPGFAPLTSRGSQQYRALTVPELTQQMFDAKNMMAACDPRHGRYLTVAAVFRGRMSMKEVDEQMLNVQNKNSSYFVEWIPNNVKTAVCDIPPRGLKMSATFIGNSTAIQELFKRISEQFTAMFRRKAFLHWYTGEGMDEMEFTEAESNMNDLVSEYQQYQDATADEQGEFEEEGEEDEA
T1 sequence (P02550 whole entry partner): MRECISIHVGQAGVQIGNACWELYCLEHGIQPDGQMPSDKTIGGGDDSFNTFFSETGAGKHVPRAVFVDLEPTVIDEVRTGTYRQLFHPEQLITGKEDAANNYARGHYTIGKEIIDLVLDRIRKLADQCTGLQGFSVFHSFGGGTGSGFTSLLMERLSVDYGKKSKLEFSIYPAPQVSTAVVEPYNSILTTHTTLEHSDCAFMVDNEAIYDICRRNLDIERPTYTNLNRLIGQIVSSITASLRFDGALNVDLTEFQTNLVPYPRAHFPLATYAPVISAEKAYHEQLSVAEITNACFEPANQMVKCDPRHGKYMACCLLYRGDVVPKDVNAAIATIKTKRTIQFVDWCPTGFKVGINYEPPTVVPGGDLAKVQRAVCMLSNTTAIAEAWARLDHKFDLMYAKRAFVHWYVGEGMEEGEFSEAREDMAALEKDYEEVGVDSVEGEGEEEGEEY

Molecule | IC50 (A549 cancer cells; Homo sapiens, A549) | IC50 (PC-3 cancer cells; Homo sapiens) | IC50 (HepG2 cancer cells; [7]) | other results
CC(C)c1ccc(/C=C/C(=O)NNC(=O)/C=C/c2ccccc2)cc1 [I11] | 43 ± 7.3 µM | 19.2 ± 6.57 µM | 18.6 ± 3.9 µM | 
COc1cc(/C=C/C(=O)NNC(=O)/C=C/c2ccccc2)ccc1O [I15] | 35.8 ± 0.59 µM | > 300 µM | 31.1 ± 7.66 µM | 
O=C(/C=C/c1ccccc1)NNC(=O)/C=C/c1ccccc1 [I1] | 26.7 ± 0.43 µM | 5.95 ± 1.52 µM | 8.17 ± 0.46 µM | 
CCOc1ccc(/C=C/C(=O)NNC(=O)/C=C/c2ccccc2)cc1 [I13] | 15 ± 4.9 µM | 22.5 ± 2.64 µM | 15.4 ± 0.93 µM | 
Cc1ccc(/C=C/C(=O)NNC(=O)/C=C/c2ccccc2)cc1 [I10] | 19.5 ± 4.95 µM | 70.3 ± 9.88 µM | 23.6 ± 2.67 µM | 
(E)-3-(3-methoxyphenyl)-N'-((E)-3-(3-methoxyphenyl)acryloyl)acrylohydrazide [I25] |  |  |  | IC50 (A549 cancer cells): 144 ± 8.95 µM; IC50 (PC-3 cancer cells): 142 ± 6.79 µM; IC50 (HepG2 cancer cells; MTT assay after 48 h): 80 ± 4.04 µM
O=C(/C=C/c1ccccc1)NNC(=O)/C=C/c1cccc(O)c1 [I5] | 5.09 ± 0.08 µM | 6.68 ± 0.96 µM | 8.69 ± 1.04 µM | IC50 (NRK-52E cells): 50 ± 4.4 µM
COc1cc2ncnc(Nc3ccc(F)c(Cl)c3)c2cc1OCCCN1CCOCC1 [Gefitinib, reference compound] |  |  |  | Cell relative migration (migration rate) (A549 cells; [8]): 3.98%; Cell relative migration (migration rate) (A549 cells; [9]): 7.97%
Cc1ncsc1/C=C/C(=O)NNC(=O)/C=C/c1ccccc1 [I19] | 26.6 ± 5.08 µM | 96.4 ± 8.36 µM | 89.3 ± 8.89 µM | 
O=C(/C=C/c1ccccc1)NNC(=O)/C=C/c1ccc([N+](=O)[O-])cc1 [I7] | 4.17 ± 0.93 µM | 8.79 ± 3.19 µM | 7.63 ± 1.75 µM | IC50 (NRK-52E cells): 21 ± 1.75 µM
CN(C)c1ccc(/C=C/C(=O)NNC(=O)/C=C/c2ccccc2)cc1 [I14] | 12.8 ± 0.6 µM | 7.81 ± 1.69 µM | 3.42 ± 0.49 µM | IC50 (NRK-52E cells): 7 ± 0.3 µM
O=C(/C=C/c1ccccc1)NNC(=O)/C=C/c1ccccc1[N+](=O)[O-] [I2] | 7.55 ± 1.22 µM | 8.08 ± 2.24 µM | 9.33 ± 0.95 µM | 
COc1cccc(/C=C/C(=O)NNC(=O)/C=C/c2cccc(OC)c2)c1 [I26] | 11 ± 1.72 µM | 21 ± 2.32 µM | 14.5 ± 2.56 µM | 
O=C(/C=C/c1ccccc1)NNC(=O)/C=C/c1ccc(Cl)cc1 [I8] | 9.57 ± 1.92 µM | 63.2 ± 3.86 µM | 6.98 ± 1.3 µM | 
O=C(/C=C/c1ccccc1)NNC(=O)/C=C/c1cccnc1 [I22] | 60.2 ± 2.37 µM | 159 ± 5.88 µM | 43.3 ± 1.1 µM | 
COc1cccc(/C=C/C(=O)NNC(=O)/C=C/c2ccc([N+](=O)[O-])cc2)c1 [I23] | 5.99 ± 1.07 µM | 4.17 ± 0.57 µM | 3.36 ± 0.8 µM | IC50 (NRK-52E cells): 6.99 ± 1.6 µM; Effect on cellular microtubule network (immunofluorescence) [1]: agminated microtubule network and wrinkled nucleus were observed; Effect on tubulin polymerization (tubulin [2]): could stabilize tubulin assembly and promote protofilament assembly in a dosage-dependent manner; Effect on tubulin polymerization seen by TEM (tubulin [3]): more large nonlinear disorganized aggregations; Percentage of cell, G2/M (HepG2 cells [4]): 20.56%; Cell relative migration (migration rate) (A549 cells; A549, 3 μM, 12 h (control 12.5%)): 8.93%; Cell relative migration (migration rate) (A549 cells; A549, 3 μM, 24 h (control 24.4%)): 18.7%; Cell relative migration (migration rate) (A549 cells; [8]): 6.07%; Cell relative migration (migration rate) (A549 cells; [9]): 13.2%; Apoptosis effect (Hoechst 33258 staining) (HepG2 cells [5]): a strong apoptotic phenomenon happened; IC50 [6]: 3.36 to 5.99 µM
O=C(/C=C/c1ccccc1)NNC(=O)/C=C/c1cccc([N+](=O)[O-])c1 [I4] | 6.05 ± 0.08 µM | 15.8 ± 1.67 µM | 6.32 ± 1 µM | 
O=C(/C=C/c1ccccc1)NNC(=O)/C=C/c1ccccc1Cl [I3] | 6.48 ± 0.41 µM | 7.38 ± 0.24 µM | 9.53 ± 1.74 µM | 
O=C(/C=C/c1ccccc1)NNC(=O)/C=C/C1CCCCC1 [I20] | 16.3 ± 3.25 µM | 21.8 ± 3.15 µM | > 300 µM | 
O=C(/C=C/c1ccccc1)NNC(=O)/C=C/c1ccc(F)cc1 [I9] | 24.9 ± 1.54 µM | 4.68 ± 0.69 µM | 7.63 µM | IC50 (HepG2 cancer cells; MTT assay after 48 h): 4.75 ± 0.36 µM
COc1cccc(/C=C/C(=O)NNC(=O)/C=C/c2ccccc2)c1 [I6] | 41 ± 4.47 µM | 160 ± 10.9 µM | 46.8 ± 0.14 µM | 
O=C(/C=C/c1ccccc1)NNC(=O)/C=C/C1CC=CCC1 (stereo not drawn) [I21] | 8.27 ± 0.8 µM | 21.6 ± 0.89 µM | 20.4 ± 0.86 µM | 
O=C(/C=C/c1ccccc1)NNC(=O)/C=C/c1ccco1 [I17] | 13 ± 2.4 µM | 36 ± 0.7 µM | 34.5 ± 0.28 µM | 
COc1ccc(/C=C/C(=O)NNC(=O)/C=C/c2ccccc2)cc1 [I12] | 10.9 ± 0.25 µM | 39.4 ± 3.54 µM | 21.1 ± 4.07 µM | 
COc1ccc(/C=C/C(=O)NNC(=O)/C=C/c2ccc([N+](=O)[O-])cc2)cc1 [I24, (E)-3-(4-methoxyphenyl)-N'-((E)-3-(4-nitrophenyl)acryloyl)acrylohydrazide] | 5.17 ± 0.41 µM | 15.7 ± 2.98 µM | 8.08 ± 2.25 µM | 
O=C(/C=C/c1ccccc1)NNC(=O)/C=C/c1cccs1 [I18] | 13.8 ± 0.29 µM | 15.9 ± 1.14 µM | 21.1 ± 3.76 µM | 
O=C(/C=C/c1ccccc1)NNC(=O)/C=C/C1CC1 [I16] | 16.4 ± 0.98 µM | 80.5 ± 5.43 µM | 78.5 ± 1.39 µM | 
COc1cc(/C=C/C(=O)CC(=O)/C=C/c2ccc(O)c(OC)c2)ccc1O [Curcumin, reference compound] | 69.6 ± 1.18 µM | 73.4 ± 4.99 µM |  | IC50 (HepG2 cancer cells; Homo sapiens, HepG2, 48 h): 40.2 ± 1.74 µM; IC50 (NRK-52E cells): > 300 µM
